The record followed here is patent US20260242405A1, “N-DERIVATIZED SIALIC ACIDS AND RELATED SIALOSIDES” (THE REGENTS OF THE UNIVERSITY OF CALIFORNIA, priority 2023, published 2026).

The target in one experiment is N1-BR18. Conditions: read-out: KD for the interaction of N1-BR18.
A further experiment concerns H1N1/BR18 virus. Conditions: virus in egg allantoic fluid, streptavidin plates or Dynabeads.
Experiment [1] deals with NAs from both IAVs and IBVs.
Experimental: Enzyme-linked immunosorbent assays (ELISA). These assays were carried out in duplicates in 384-well NeutrAvidin-coated plates. The wells were washed with 3×80 μL of washing buffer (1× PBS buffer with 0.05% tween-20) and then were incubated with biotinylated glycans (10 μM, 20 μL) at 4° C. for overnight. Then the wells were washed with 3×80 μL of washing buffer and blocked with 60 μL of blocking buffer (1× PBS buffer with 0.1% BSA). The wells were then washed with 3×80 μL of washing buffer, and NA (10 μg/mL, 20 μL) was added to each well. The samples were incubated at 4° C. for 30 minutes. The wells were then washed with 3×80 μL of washing buffer, and HRP-conjugated anti-His or anti-Strep antibodies (0.1 μg/mL or with proper dilution using 1× PBS buffer with 0.1% BSA, 20 μL) were added. The samples were incubated at 4° C. for 30 minutes.
Experiment [2] relates to human, bacterial, and influenza sialidases. In words: High-throughput substrate specificity assay with sialyl GalβpNPs (A405 nm). Type of experiment: biochemical, bacteria, influenza A and B viruses.
For experiment [3], the target named is N2-Dar21 (IAV neuraminidase) (Influenza A virus, UniProt A0A193ACB1). Description: Fluorescence-based inhibition assay (substrate Neu5Acα2-3GalβMU, β-galactosidase coupled). Type of experiment: biochemical, influenza A virus A/Darwin/9/2021 (H3N2). Conditions: read-out: percentage inhibition against N2-Dar21.
The target in the next experiment is T1, SpNanA (sialidase) (Streptococcus pneumoniae, UniProt P62575).
T1 construct: made in house
Described as above. Type of experiment: biochemical. Conditions: read-out: percent inhibition against SpNanA.

Experiment [4] concerns the target N1-BR18 (IAV neuraminidase) (Influenza A virus, UniProt A0A0X9QTS2). Described as above. Type of experiment: biochemical, influenza A virus A/Brisbane/02/2018 (H1N1).
The target of experiment [5] is T2, PmST1 WT (sialidase activity of α2-3-sialyltransferase 1 in the presence of CMP) (Pasteurella multocida, UniProt Q15KI8).
T2 construct: made in house
In words: biochemical. Conditions: read-out: percent inhibition against PmST1 WT.

The target in experiment [6] is NB-Phu13 (IBV neuraminidase) (Influenza B virus, UniProt A0A1S5RAG6). In words: Fluorescence-based inhibition assay (substrate Neu5Acα2-3GalβMU, β-galactosidase coupled). Type of experiment: biochemical, influenza B virus B/Phuket/3073/2013. Conditions: read-out: percentage inhibition against NB-Phu13.
For experiment [7], the target named is T3, hNEU2 (human cytosolic sialidase) (Homo sapiens, UniProt Q9Y3R4).
T3 construct: made in house
T3 sequence (Q9Y3R4 whole entry): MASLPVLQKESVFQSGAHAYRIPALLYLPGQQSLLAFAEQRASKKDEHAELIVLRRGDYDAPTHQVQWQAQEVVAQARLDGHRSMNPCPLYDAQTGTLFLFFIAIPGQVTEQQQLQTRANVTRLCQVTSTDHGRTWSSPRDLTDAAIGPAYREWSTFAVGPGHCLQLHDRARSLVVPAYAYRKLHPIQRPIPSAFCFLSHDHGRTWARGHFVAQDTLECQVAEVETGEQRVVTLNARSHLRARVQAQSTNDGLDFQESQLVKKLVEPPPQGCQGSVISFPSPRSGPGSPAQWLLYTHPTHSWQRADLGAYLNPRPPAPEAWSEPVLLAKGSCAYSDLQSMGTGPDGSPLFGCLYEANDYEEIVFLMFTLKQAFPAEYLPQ
The experiment is described as above. Type of experiment: biochemical. Conditions: inhibitor 8.0 μM.

Experiment [8] has as its target N2-Kan17 (IAV neuraminidase) (Influenza A virus, UniProt A0A193ACB1). The experiment is described as above. Type of experiment: biochemical, influenza A virus A/Kansas/14/2017 (H3N2). Conditions: read-out: percentage inhibition against N2-Kan17.
Experiment [9] concerns influenza NAs tested (N1-Vic19, N1-BR18, N2-Dar21, N2-Kan17, NB-NB-Aus21, NB-Phu13). In words: Fluorescence-based inhibition assay, statements on the influenza NA panel. Conditions: for inhibition efficiency relative to 4NH2Neu5Ac2en (3), fold better: from IC50 values; for inhibitory activities against the influenza NAs tested (span over six NAs): inhibitor 8.0 μM, substrate Neu5Acα2-3GalβMU 8.0 μM; for inhibitory activity against influenza NAs, in words: Example 3 inhibition and IC50 assays. Type of experiment: biochemical, influenza A and B viruses.

For experiment [10], the target named is NB-Aus21 (IBV neuraminidase) (Influenza B virus, UniProt A0A1X9RX69). In words: biochemical. Further details: species or system influenza B virus B/Austria/1359417/2021. Conditions: inhibitor 8.0 μM.
Experiment [11] relates to N1-Vic19 (IAV neuraminidase). Description: Fluorescence-based inhibition assay (substrate Neu5Acα2-3GalβMU, β-galactosidase coupled). Type of experiment: biochemical, influenza A virus A/Victoria/2570/2019 (H1N1). Conditions: inhibitor 8.0 μM; Example 3, Table 4.
The mark [12] stands for this setting: high-concentration enzyme conditions (10-fold, Vc sialidase 4-fold), 1 hour.
Where [13] appears, read: high-concentration enzyme conditions, 14 hours.
The mark [14] stands for this setting: read-out: percentage inhibition against N1-BR18, inhibitor 8.0 μM, Example 3, Table 4.
Where [15] appears, read: substrate Neu5Acα2-3GalβMU 8.0 μM, Example 2, Table 2, read-out: Percentage inhibition against hNEU2.
The mark [16] stands for this setting: Table 5, read-out: percent inhibition against hNEU2.
The mark [17] stands for this setting: substrate Neu5Acα2-3GalβMU 8.0 μM, Example 2, Table 2, read-out: Percentage inhibition against NB-Aus21 (IBV).
Setting [18] is: Example 3, Table 4, read-out: percentage inhibition against NB-NB-Aus21.
Where [19] appears, read: read-out: Percentage inhibition against N1-BR18 (IAV), inhibitor 8.0 μM, substrate Neu5Acα2-3GalβMU 8.0 μM, Example 2, Table 2.

Where two headings read alike, the source gives them in different places.

For orientation: Kd means the equilibrium constant for the complex coming apart. On to “4-Guanidino-Neu5Acα2-3LacNAcβPorNH-PEG4-Biotin [Compound 10d]”, for which, at N1-BR18, the Kd is 45.5 nM. Besides, the “binding of influenza NAs to immobilized sialoside (BLI), in words” value (“binding of influenza NAs” below) with influenza NAs is “significantly stronger binders than other sialosides”. Moreover, the “detection and retention of H1N1/BR18 virions by immobilized ligand” value is “effective affinity ligand for detecting and purifying H1N1 virus” in the experiment on H1N1/BR18 virus (listed as 4-Guanidino-Neu5Acα2-3LacNAcβProNH-PEG4-Biotin (10d)); “efficient in retaining H1N1/BR18 virions” in the experiment on H1N1/BR18 virus (listed as 4-guanidino-Neu5Acα2-3LacNAcβProNH-PEG4-Biotin (10d)).
Turning to “4N3Neu5Acα2-3GalβProNH-PEG4-Biotin [Compound 11c]”, the “suitability as affinity ligand for immobilizing NAs (ELISA)” value (“suitability as affinity ligand” below) in [1] is reported as “not suitable affinity ligands”.
For the molecule “4N3Neu5Acα2-3LacNAcβProNH-PEG4-Biotin [Compound 11d]”, in the experiment on influenza NAs, the “binding of influenza NAs” value was “Weak binding of N1-Vic19, N2-Dar21, and the IBV NAs”. Besides, the “suitability as affinity ligand” value in [1] is recorded as “not suitable affinity ligands”.
With “4NAcNeu5Acα2-3GalβProNH-PEG4-Biotin [Compound 12c]”, the “suitability as affinity ligand” value in experiment [1] was “not suitable affinity ligands”.
With “4NAcNeu5Acα2-3LacNAcβProNH-PEG4-Biotin [Compound 12d]”, the “binding of influenza NAs” value in the experiment on influenza NAs was “weak binding of N1-Vic19 and N2-Dar21”. Also, the “suitability as affinity ligand” value in [1] is recorded as “not suitable affinity ligands”.
Regarding “4NH2Neu5Acα2-3LacNAcβPorNH-PEG4-Biotin [Compound 9d]”, in the experiment on influenza NAs, the “binding of influenza NAs” value is listed as “significantly stronger binders than other sialosides”.
The inhibition is the relative decrease from the control value, in per cent. For `CC(=O)N[C@@H]1C(NC(=N)N)C[C@](OC2C(O)[C@H](Oc3ccc([N+](=O)[O-])cc3)OC(CO)[C@@H]2O)(C(=O)O)OC1[C@H](O)[C@H](O)CO` (stereo partly shown) [4-Guanidino-Neu5Acα2-3GalβpNP], the cleavage by sialidases entry is “very poor substrates for the influenza NAs tested” in [2] (setting [12]) and “selectively by influenza virus NAs” in experiment [2] (setting [13]). Also, the inhibition at 8 µM is 97% in experiment [3]; 0.2 ± 0.7% at SpNanA (sialidase); 97.9% in experiment [4] (setting [14]); 26.1 ± 0.1% in [5]; 80.1% in experiment [6]; 0% in [7] (setting [15]). Moreover, the inhibition at 8 µM was 0% in experiment [7] (setting [16]), 94.9% in [8], 86% in experiment [10] (setting [17]) and 84.2% in experiment [10] (setting [18]). Also, the “inhibition efficiency relative to 4NH2Neu5Ac2en (3), fold better” value in experiment [9] (against N1-Vic19 and N1-BR18) was “about 4 fold”; in experiment [9] (against N2-Kan17 and N2-Dar21), “about 10 fold”. In addition, the “inhibitory activities against the influenza NAs tested (span over six NAs)” value in experiment [9] is listed as 80-98%. In addition, the “percentage inhibition against N1-Vic19” value in experiment [11] came to 98.2%.
Turning to `CC(=O)N[C@H]1[C@H]([C@H](O)[C@H](O)CO)O[C@@](OC[C@H]2O[C@@H](Oc3ccc([N+](=O)[O-])cc3)[C@H](O)[C@@H](O)[C@H]2O)(C(=O)O)C[C@@H]1NC(=N)N` [4-Guanidino-Neu5Acα2-6GalβpNP], the cleavage by sialidases entry is “very poor substrates for the influenza NAs tested” in [2] (setting [12]) and “selectively by influenza virus NAs” in [2] (setting [13]). For the same molecule, the inhibition at 8 µM worked out at 81.5% in experiment [3]; 6.4 ± 0.3% at SpNanA (sialidase); 90% in experiment [4] (setting [19]); 92.8% in [4] (setting [14]); 31.7 ± 13.7% in experiment [5]; 78.9% in [6]. The inhibition at 8 µM in experiment [7] (setting [15]) came to 0%; in [7] (setting [16]), 0%; in experiment [8], 78%; in [10] (setting [17]) it was 69%; in experiment [10] (setting [18]), 66.6%. For the same molecule, the “inhibitory activity against influenza NAs, in words” value in experiment [9] is on record as “generally a weaker NA inhibitor than its α2-3-sialyl linked counterpart”. In addition, the “inhibitory activities against the influenza NAs tested (span over six NAs)” value in experiment [9] was 67-93%. Moreover, the “percentage inhibition against N1-Vic19” value in experiment [11] was 93.1%.
Take `CC(=O)N[C@@H]1C(N)C[C@](OCC2O[C@@H](Oc3ccc([N+](=O)[O-])cc3)C(O)C(O)[C@H]2O)(C(=O)O)OC1[C@H](O)[C@H](O)CO` (stereo partly shown) [4NH2Neu5Acα2-6GalβpNP]: the cleavage by sialidases entry in experiment [2] (setting [12]) is “very poor substrates for the influenza NAs tested”; in experiment [2] (setting [13]), “weakly cleaved off by both SpNanA and some influenza virus NAs”. In addition, the inhibition at 8 µM in experiment [3] came out at 2.9%; on SpNanA (sialidase), 4.4 ± 9.6%; in experiment [4] (setting [19]) it was 15%; in experiment [4] (setting [14]), 0.7%; in [5], 35.7 ± 19.9%; in experiment [6] it was 9.8%. In addition, the inhibition at 8 µM worked out at 0% in [7] (setting [15]); 0% in experiment [7] (setting [16]); 1.5% in experiment [8]; 36% in experiment [10] (setting [17]); 13.5% in [10] (setting [18]). Further, in experiment [9], the “inhibitory activity against influenza NAs, in words” value is recorded as “insignificant against the N1 or N2 NAs tested”. Also, the “percentage inhibition against N1-Vic19” value in [11] was found to be 0.4%.
On to “GalβProNH-PEG4-Biotin [GalβProNH-PEG4-Biotin (19), reference compound]”, for which the “suitability as affinity ligand” value in experiment [1] is “not suitable affinity ligands”.
As for “LacNAcβProNH-PEG4-Biotin [LacNAcβProNH-PEG4-Biotin (20), reference compound]”, the “suitability as affinity ligand” value in experiment [1] is recorded as “not suitable affinity ligands”. Also, in the experiment with H1N1/BR18 virus, the “detection and retention of H1N1/BR18 virions by immobilized ligand” value is “did not retain influenza virions”.
